Experimental data published in paper PMC9667534, “Insertion of Nanoluc into the Extracellular Loops as a Complementary Method To Establish BRET-Based Binding Assays for GPCRs” (ACS Pharmacology & Translational Science, 2022).
Values joined by “and” are separate entries in the source; they are usually repeats but may differ in a detail not shown here. Equal values may be shown once. Read-outs that look alike come from different tables or passages of the source.

Assays:
[1] = target: NTS1R; parameters: method as in ref 42,44,50-53 (per cell); conditions: different expression systems, ref 42,44,50-53 (per cell); cited from earlier work
[2] = target: T1, Nluc-Y1R(Nterm) (Homo sapiens, UniProt P25929); test: BRET saturation binding at intact HEK293T cells
T1 construct: expressed in transfected cells; host or cells: HEK293T, stably transfected (pcDNA3.1)
T1 sequence (P25929 1-384): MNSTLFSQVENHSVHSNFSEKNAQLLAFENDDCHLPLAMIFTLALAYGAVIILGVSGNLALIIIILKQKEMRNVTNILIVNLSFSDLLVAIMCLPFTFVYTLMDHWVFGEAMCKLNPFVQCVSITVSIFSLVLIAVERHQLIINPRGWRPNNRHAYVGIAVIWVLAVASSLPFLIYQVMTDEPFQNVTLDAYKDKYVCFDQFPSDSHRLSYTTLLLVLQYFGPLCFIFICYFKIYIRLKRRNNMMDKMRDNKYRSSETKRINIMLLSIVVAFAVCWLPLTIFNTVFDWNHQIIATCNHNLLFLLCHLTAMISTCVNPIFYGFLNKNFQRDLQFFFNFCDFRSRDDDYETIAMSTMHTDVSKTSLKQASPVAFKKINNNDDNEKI
Protocol: (§1) BRET binding experiments were essentially performed as described[18] with the following minor modifications: 1 day prior to the experiment, HEK293T cells stably expressing the respective Nluc-receptor fusion construct were detached from the cell culture dish by trypsinization, centrifuged (500g, 5 min), and resuspended in L-15 with 5% FCS and 10 mM HEPES (pH 7.4). […] Subsequently, 10 μL of assay buffer containing the investigated fluorescent ligand was added to all wells. After an incubation period of 60 min at 27 °C, 10 μL of the Nluc substrate furimazine (prediluted 1:1000 before use) was added and after an equilibration time of 5 min inside the plate reader (prewarmed to 27 °C), the measurement was started.
(§2) For BRET experiments, the “raw BRET ratio” was calculated by dividing the emission detected through the 610 LP filter (acceptor) by the emission detected through the 460 BP filter (donor). A baseline correction was performed for all values by subtracting the BRET ratio of a buffer control, yielding “corrected BRET ratios”. […] The obtained Kd values were transformed into pKd values, for which means and SEMs were calculated.

[3] = target: T2, Nluc-Y1R(Δ1–31) (Homo sapiens, UniProt P25929); test: BRET saturation binding at intact HEK293T cells; conditions: mean ± SEM, read-out: pKd (BRET) (converted)
T2 construct: fused Nluc to Asp32 of the Y1R via a short linker; expressed in transfected cells; host or cells: HEK293T, stably transfected (pcDNA3.1)
T2 sequence (P25929 32-384): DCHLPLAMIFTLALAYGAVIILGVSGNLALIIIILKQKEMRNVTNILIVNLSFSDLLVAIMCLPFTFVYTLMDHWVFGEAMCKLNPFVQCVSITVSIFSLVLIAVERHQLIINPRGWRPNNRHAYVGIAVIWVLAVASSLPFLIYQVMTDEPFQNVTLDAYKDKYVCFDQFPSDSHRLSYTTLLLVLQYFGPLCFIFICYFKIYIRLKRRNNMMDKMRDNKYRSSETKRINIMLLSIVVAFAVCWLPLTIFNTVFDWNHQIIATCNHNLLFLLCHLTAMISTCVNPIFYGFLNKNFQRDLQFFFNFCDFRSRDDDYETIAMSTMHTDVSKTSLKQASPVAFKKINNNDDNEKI
Protocol: as §1, §2

[4] = target: T3, Nluc-Y1R(Y192) (Homo sapiens, UniProt P25929); test: BRET saturation binding at intact HEK293T cells
T3 sequence (P25929 1-384): T1 sequence (P25929 1-384)
Protocol: as §1, §2

[5] = target: T4, Nluc-Y1R(Q291) (Homo sapiens, UniProt P25929); test: BRET saturation binding at intact HEK293T cells
T4 sequence (P25929 1-384): T1 sequence (P25929 1-384)
Protocol: as §1, §2

[6] = target: T3, Nluc-Y1R(Y192); test: Kinetic BRET binding (association and dissociation); conditions: 1 c = 0.5 nM
[7] = target: wild-type Y1R; parameters: method as in PMID 35263541; conditions: cited from earlier work
[8] = target: Y1R; parameters: method as in PMID 35263541; conditions: 1 as the fluorescent probe; cited from earlier work
[9] = target: Y1R; parameters: method as in ref 24,25,27,30-38 (per cell); conditions: different expression systems, sodium-containing or sodium-free buffers, ref 24,25,27,30-38 (per cell); cited from earlier work
[10] = target: T5, Nluc-M1R(Nterm) (Homo sapiens, UniProt P11229); test: BRET saturation binding at intact HEK293T cells; conditions: mean ± SEM, read-out: pKd (BRET) (converted)
T5 construct: expressed in transfected cells; host or cells: HEK293T, stably transfected (pcDNA3.1)
T5 sequence (P11229 1-460): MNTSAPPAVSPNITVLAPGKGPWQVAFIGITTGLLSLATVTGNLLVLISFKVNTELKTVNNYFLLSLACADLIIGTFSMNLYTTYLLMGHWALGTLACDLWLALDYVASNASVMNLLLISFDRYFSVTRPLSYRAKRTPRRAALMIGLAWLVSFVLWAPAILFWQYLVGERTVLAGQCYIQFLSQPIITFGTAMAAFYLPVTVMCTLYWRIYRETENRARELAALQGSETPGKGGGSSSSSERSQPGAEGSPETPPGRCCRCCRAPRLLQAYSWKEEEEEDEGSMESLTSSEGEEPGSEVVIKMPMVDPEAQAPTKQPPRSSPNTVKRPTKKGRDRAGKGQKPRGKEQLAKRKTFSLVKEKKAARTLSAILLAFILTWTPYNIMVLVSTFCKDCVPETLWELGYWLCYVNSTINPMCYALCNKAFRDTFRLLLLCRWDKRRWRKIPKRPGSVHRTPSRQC
Protocol: as §1, §2

[11] = target: T6, Nluc-M1R(G176) (Homo sapiens, UniProt P11229); test: BRET saturation binding at intact HEK293T cells
T6 sequence (P11229 1-460): T5 sequence (P11229 1-460)
Protocol: as §1, §2

[12] = target: T6, Nluc-M1R(G176); test: Kinetic BRET binding (association and dissociation)
[13] = target: T3, Nluc-Y1R(Y192); test: BRET competition binding with fluorescent ligand 1; conditions: competition with 1 (c = 0.5 nM, Kd = 0.24 nM), intact HEK293T cells, mean ± SEM
Protocol: as §1
(§3) A positive control containing only fluorescent ligand and no competitor (100% value), as well as a negative control (buffer, 0% value), was included in every experiment.
(§4) For competition binding experiments, the data were normalized to the BRET ratio obtained for the negative control (buffer, 0% value) and the BRET ratio obtained for wells containing fluorescent ligand, but no competitor (100% value). […] The obtained pIC50 values were subsequently transformed into pKi values by means of the Cheng–Prusoff equation (logarithmic form),[80] for which means and SEMs were calculated.

[14] = target: T4, Nluc-Y1R(Q291); test: BRET competition binding with fluorescent ligand 1; conditions: competition with 1 (c = 0.5 nM, Kd = 0.29 nM), HEK293T cells; mean ± SEM
Protocol: as §1, §3, §4

[15] = target: T6, Nluc-M1R(G176); test: biochemical; assay type: binding
Protocol: BRET binding experiments were essentially performed as described[18] with the following minor modifications: 1 day prior to the experiment, HEK293T cells stably expressing the respective Nluc-receptor fusion construct were detached from the cell culture dish by trypsinization, centrifuged (500g, 5 min), and resuspended in L-15 with 5% FCS and 10 mM HEPES (pH 7.4). […] Subsequently, 10 μL of assay buffer containing the investigated fluorescent ligand was added to all wells.
as §3, §4

[16] = target: M1R; conditions: cited from earlier work
[17] = target: AT1R; parameters: method as in ref 41,44,46-49 (per cell); conditions: different expression systems, ref 41,44,46-49 (per cell); cited from earlier work
[18] = target: Nluc-NTS1R(T227); test: BRET competition binding with fluorescent ligand 2; parameters: species or system human; conditions: competition with 2 (c = 5 nM, Kd = 4.82 nM), intact HEK293T cells, mean ± SEM
Protocol: as §1, §3, §4

[19] = target: T7, Nluc-AT1R(S186) (Homo sapiens, UniProt P30556); test: BRET competition binding with fluorescent ligand 3
T7 sequence (P30556 1-359): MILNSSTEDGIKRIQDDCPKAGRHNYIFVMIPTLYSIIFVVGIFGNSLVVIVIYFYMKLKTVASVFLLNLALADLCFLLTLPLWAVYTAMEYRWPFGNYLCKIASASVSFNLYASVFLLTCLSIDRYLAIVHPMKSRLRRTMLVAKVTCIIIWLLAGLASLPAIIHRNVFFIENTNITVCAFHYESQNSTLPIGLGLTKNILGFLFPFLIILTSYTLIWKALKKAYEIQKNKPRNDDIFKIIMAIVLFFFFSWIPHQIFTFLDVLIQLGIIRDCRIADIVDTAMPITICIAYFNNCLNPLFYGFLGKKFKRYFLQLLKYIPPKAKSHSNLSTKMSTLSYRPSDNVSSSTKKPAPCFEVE
Protocol: as §1
A positive control containing only fluorescent ligand and no competitor (100% value), as well as a negative control (buffer, 0% value), was included in every experiment. […]
as §4

[20] = target: Nluc-NTS1R(T227) (human) (UniProt P30989); test: FRET or BRET; kinetic BRET binding (association then dissociation) at intact HEK293T cells, 27 °C; fluorescent ligand 10 nM; dissociation started with SR142948 or candesartan (2.5 μM)
[21] = target: Nluc-NTS1R(T227) (human) (UniProt P30989); test: FRET or BRET; BRET saturation binding of the fluorescent ligand at intact HEK293T cells stably expressing the Nluc-receptor construct; 60 min, 27 °C; L-15, 10 mM HEPES pH 7.4, 2% BSA; nonspecific binding with 100-fold excess of SR142948 or candesartan
[22] = intact HEK293T cells, mean ± SEM, read-out: pKd (BRET) (converted)
[23] = value used for Cheng–Prusoff, read-out: Kd
[24] = intact HEK293T cells, mean ± SEM

Sequence of Nluc-NTS1R(T227) (human) (P30989 whole entry): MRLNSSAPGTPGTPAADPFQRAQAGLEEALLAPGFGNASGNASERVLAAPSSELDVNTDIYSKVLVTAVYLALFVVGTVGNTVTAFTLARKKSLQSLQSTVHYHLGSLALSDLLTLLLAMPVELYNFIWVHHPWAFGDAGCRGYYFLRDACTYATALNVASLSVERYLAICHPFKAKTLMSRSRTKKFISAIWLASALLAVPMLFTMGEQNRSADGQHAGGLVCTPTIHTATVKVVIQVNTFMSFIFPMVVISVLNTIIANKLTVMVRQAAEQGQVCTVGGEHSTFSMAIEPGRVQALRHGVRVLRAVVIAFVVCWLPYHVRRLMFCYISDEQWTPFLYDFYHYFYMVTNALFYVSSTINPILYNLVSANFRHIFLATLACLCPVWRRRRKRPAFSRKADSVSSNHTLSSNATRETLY
Sequence of Nluc-NTS1R(T227) (P30989 1-227 limits assumed): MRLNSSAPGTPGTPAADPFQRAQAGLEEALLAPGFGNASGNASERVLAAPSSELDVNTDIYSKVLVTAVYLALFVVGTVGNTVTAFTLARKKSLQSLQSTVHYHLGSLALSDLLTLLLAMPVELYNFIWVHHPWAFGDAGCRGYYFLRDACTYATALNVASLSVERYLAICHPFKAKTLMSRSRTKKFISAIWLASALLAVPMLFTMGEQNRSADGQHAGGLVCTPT
Sequence of Nluc-NTS1R(T227) (P30989 228-418 limits assumed): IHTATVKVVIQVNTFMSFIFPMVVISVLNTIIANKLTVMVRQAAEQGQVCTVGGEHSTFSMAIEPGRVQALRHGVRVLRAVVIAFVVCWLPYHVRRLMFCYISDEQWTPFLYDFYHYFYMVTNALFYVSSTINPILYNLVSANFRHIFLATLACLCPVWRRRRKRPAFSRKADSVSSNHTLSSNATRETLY

For Neurotensin(8–13) [NT(8–13)], the “reference values (literature)” value [1] is listed as 8.27–9.85[42],[44],[50]−[52].

For `CCC(=O)NCCNC(=O)N=C(N)NCCC[C@@H](NC(=O)[C@@H](c1ccccc1)c1cccc(OCCCC[n+]2c(C)cc(/C=C/C=C/c3ccc(N(C)C)cc3)cc2C)c1)C(=O)NCc1ccc(O)cc1` [compound 1], the “specific signal in BRET saturation binding” value [2] was “no specific signal was detectable”, the Kd [3] was 2.88 nM and the Kd [4, 22] was 0.24 nM. For the same compound, the Kd [4, 23] was 0.24 nM, the Kd [5, 22] was 0.288 nM and the Kd [5, 23] was 0.29 nM. The time of association [6] was ≤ 60 min, the koff [6, 24] was 6.67e-05 s⁻¹ and the kon [6, 24] was 2.38e+06 M⁻¹ s⁻¹. For the same compound, the “fraction still bound after initiation of dissociation” value ([6]; after 4 h, dissociation by BIBO3304) was “≈ 40%”, the Kd ([6]; kinetically derived, mean ± SEM, read-out: pKd kinetic (converted)) was 0.024 nM and the “pKi (radioligand competition binding)” value [7] was 9.95.

In the case of porcine neuropeptide Y [pNPY], the “pKi (flow cytometry-based competition binding)” value [8] is listed as 7.58 and the “reference values (literature)” value [9] is listed as 7.58–9.75[24],[25],[27],[30]−[32].

With `Cc1cc(/C=C/C=C/c2ccc(N(C)C)cc2)cc(C)[n+]1CCNC(=O)CCc1cn(CCCCC2CCN(CC(=O)N3c4ccccc4NC(=O)c4ccccc43)CC2)cn1` [compound 4] the Kd [10] was 6.03 nM, the Kd [11, 22] was 2.24 nM and the Kd [11, 23] was 2.26 nM. The koff [12] was 0.00297 s⁻¹, the kon [12] was 367000 M⁻¹ s⁻¹ and the Kd ([12]; kinetically derived, Nluc-M1R(G176), 4 c = 5 nM, mean ± SEM, read-out: pKd kinetic (converted)) was 9.12 nM.

For `CCC(=O)NCCNC(=O)N=C(N)NCCC[C@@H](NC(=O)C(c1ccccc1)c1ccccc1)C(=O)NCc1ccc(O)cc1` [UR-MK299], the “pKi (BRET)” value [13] is listed as 10.20 ± 0.06, the “pKi (BRET, Nluc-Y1R(Q291))” value [14] is listed as 10.06 ± 0.07 and the “reference values (literature)” value [9] is listed as 10.11[25].

For BMS193885, the “pKi (BRET)” value [13] is given as 8.23 ± 0.01 and the “reference values (literature)” value [9] is given as 7.66–8.48[27],[35],[36].

In the case of `NC(N)=NCCC[C@@H](NC(=O)C(c1ccccc1)c1ccccc1)C(=O)NCc1ccc(O)cc1` [BIBP3226], the “reference values (literature)” value [9] is given as 8.14–9.00[25],[27],[30],[33],[34].

In the case of `C=CC[N@@+]12CC[C@@]34c5ccccc5N5/C=C6/[C@H]7C[C@H]8[C@@]9(CC[N@@+]8(CC=C)C/C7=C/CO)c7ccccc7N(/C=C(/[C@@H](C[C@@H]31)/C(=C\CO)C2)[C@H]54)[C@@H]69` [alcuronium, Alcuronium], the “displacement of fluorescent ligand 4” value ([15]; Nluc-M1R(G176)) is listed as “displace the dualsteric ligand 4 completely” and the “reference values (literature)” value [16] is listed as 5.01,[57] 5.25[55].

For `CCCCc1nc(Cl)c(CO)n1Cc1ccc(-c2ccccc2-c2nn[nH]n2)cc1` [losartan], the “reference values (literature)” value [17] is listed as 7.23–8.00[41],[44],[46],[48],[49].

In the case of SR142948, the “pKi (BRET)” value [18] is listed as 7.93 ± 0.12 and the “reference values (literature)” value [1] is listed as 8.05–8.99[42],[44],[50],[53].

For `CC(C)c1ccccc1S(=O)(=O)c1cc(N)c2ncccc2c1[N+](=O)[O-]` [PD160170], the “pKi (BRET)” value [13] is given as 7.45 ± 0.05 and the “reference values (literature)” value [9] is given as 7.30 and 7.32.

For `CCOc1nc2cccc(C(=O)O)c2n1Cc1ccc(-c2ccccc2-c2nnn[nH]2)cc1` [candesartan, Candesartan], the Ki [19] is listed as 1.51 nM and the “reference values (literature)” value [17] is listed as 8.46–10.28[41],[44],[46]−[48].

In the case of angiotensin II, the “time until pIC50 value stabilized” value ([19]; kinetic BRET competition binding with 3 at Nluc-AT1R(S186)) is listed as ≤ 45 min and the “reference values (literature)” value [17] is listed as 7.61–9.62[44],[46]−[49].

For `C[N+](C)(C)CC#CCOC1=NOCC1` [iperoxo], the “pKi (BRET)” value [15] is given as 7.00 ± 0.07 and the “reference values (literature)” value [16] is given as 6.46[56].

UR-AP178 (peptide) showed a koff [20] of 0.0138 s⁻¹, a kon [20] of 2e+06 M⁻¹ s⁻¹ and a pKd kinetic [20] of 8.16. For the same compound, the pKd [21] was 8.32.

In the case of `O=C1CCCN1CC#CCN1CCCC1` [oxotremorine], the Ki [15] is given as 1000 nM and the “reference values (literature)” value [16] is given as 5.48–5.86[55],[57],[59].

In the case of `NC(=O)NCc1ccc(CNC(=O)[C@@H](CCCN=C(N)N)NC(=O)C(c2ccccc2)c2ccccc2)cc1` [BIBO3304], the “reference values (literature)” value [9] is listed as 8.76–9.60[27],[30],[31].
